Assay results published in article PMC7213079, “Hit Identification of New Potent PqsR Antagonists as Inhibitors of Quorum Sensing in Planktonic and Biofilm Grown Pseudomonas aeruginosa” (Frontiers in Chemistry, 2020).

Key:
Type in all cases: cell-based, Pseudomonas aeruginosa
[1] = test system: PAO1-L mCTX::PpqsA-lux; experiment: PpqsA-lux bioreporter assay, strain PAO1-L; settings: for IC50 / activity at 10 µM: Pseudomonas aeruginosa; for IC50: PAO1, read-out: IC50 PAO1-L; for activity at 10 µM: PAO1, read-out: Remaining Activity % (RA%) at 10 μM PAO1-L; for IC50 PAO1-L: n = 9, NA = not active at 10 μM
Description: In silico virtual screening was performed on the PqsR ligand binding domain (LBD) crystal structure [PDB: 4JVI; (Ilangovan et al., [2013])] using the University of Nottingham Managed Chemical Compound Collection (MCCC) containing 85,061 compounds. Molecular docking was performed using both the OpenEye docking (OpenEye Scientific Software Inc. (Hawkins et al., [2007]) and Schrödinger Suite for molecular modeling (Friesner et al., [2004]; Halgren et al., [2004]). A cut off value of the docking score function was set to -9.0 and the resulting high scoring compounds were further examined (Friesner et al., [2004]; Halgren et al., [2004]). This gave a library of around 500 diverse molecules that were evaluated using in vitro screening in a P. aeruginosa PAO1-L mCTX::PPqsA-lux reporter assay (Diggle et al., [2011]).
(§1) To inform the structural variation of 7, crystal structures with the endogenous ligand [4-hydroxy-2-heptylquinoline (NHQ)] and the inhibitor M64 were used (Ilangovan et al., [2013]; Kitao et al., [2018]). The PqsR LBD is dominated by lipophilic interactions, therefore the current SAR exploration mainly focused on varying the aromatic tail substituents and examining the effect of 8-position substitution. The rationale for these modifications was primarily based on molecular docking studies that provided insights into the mode of binding of 7 and approaches intended to improve potency. The substituent at the para- position of the aromatic ring appeared to be crucial for biological activity due to the vital π-π stacking interaction of this group with Tyr^258. […] These strains emit light upon activation of PqsR by the endogenous production of these signal molecules. […] The results of the SAR in this assay highlight the importance of testing any prospective anti-virulence strategy on multiple genetically distinct P. aeruginosa strains as a means to reduce the chance of failure at both pre-clinical and clinical stages (Freschi et al., [2015]).
(§2) PAO1-L Wild type PAO1, Lausanne subline. B.
PAO1-L mCTX::PpqsA- PAO1-L with chromosomal mini-CTX::PpqsA-lux (Soukarieh lux insertion; TcR et al., 2018) […]
(§3) mini-CTX::PpqsA-lux R6K-based mini-CTX suicide plasmid for the (Diggle et chromosomal insertion of a PpqsA-lux al., 2007) transcriptional reporter fusion; TcR
(§4) Biosensor reporter assay:
(§5) Strains PA14 mCTX::PpqsA-lux and PAO1-L mCTX::PpqsA-lux were constructed using plasmid mini-CTX::PpqsA-lux as previously described (Diggle et al., 2007) and the assay was performed according to published procedures (Fletcher et al., 2007). For screening, the compounds were tested at 10 µM concentration which was prepared from 10 mM stock in DMSO. […]

[2] = test system: PA14 mCTX::PpqsA-lux; experiment: PpqsA-lux bioreporter assay, strain PA14; settings: for IC50: Pseudomonas aeruginosa, PA14, read-out: IC50 PA14; for IC50 PA14: PpqsA-lux bioreporter, n = 9, NA = not active at 10 μM
Excerpt: as §1, with “[2015]). […]” for “[2015]).”
(§6) PA14 mCTX::PpqsA-lux PA14 with chromosomal mini-CTX::PpqsA-lux (Soukarieh insertion; TcR et al., 2018) […]
as §3, §4, §5

[3] = test system: PA14; experiment: Pyocyanin quantification, PA14; settings: PA14, compound at 3 x IC50, 16 h, compared with the control
Excerpt: Pyocyanin is an important virulence factor for P. aeruginosa infections and in particular respiratory and urinary tract infections. Pyocyanin is a redox-active phenazine the production of which is regulated via PqsR and PqsE (Hall et al., [2016]; Rampioni et al., [2016]; Higgins et al., [2018]). Therefore, pyocyanin production serves as an indirect readout of the activity of the pqs QS system. […] Compound 40 reduced pyocyanin production by over 80% in both strains in agreement with bioreporter assay results.
Figure 4 Pyocyanin production by Pseudomonas aeruginosa after treatment with pqs inhibitors 8, 14, 23, 34, 25, 26, and 40. Quantification of pyocyanin production after inhibitor treatment at 3 × IC50 for both PAO1-L and PA14. The graph represents the average of three independent experiments carried out in triplicate (n = 9).
as §2
PAO1-L mCTX::PpqsA- PAO1-L with chromosomal mini-CTX::PpqsA-lux (Soukarieh lux insertion; TcR et al., 2018)
PA14 Wild type UCBPP-PA14 (Rahme et
as §6
Pyocyanin quantification: […]
Pyocyanin pigment was extracted into chloroform by mixing 7.5 mL of supernatant with 4.5 mL of chloroform. Pyocyanin w as further extracted into 1.5 mL of 0.2 M HCL which gave a pink/red solution and the absorbance was measured at 520 nm.

Structure (SMILES) | IC50 [1] [nM] | IC50 [2] [nM] | IC50 PA14 [2] | other results
Cn1c2ccc(Br)cc2c2nnc(SCC(=O)Nc3ccc(F)cc3)nc21 [Compound 16, 2-((8-Bromo-5-methyl-5H-[1,2,4]triazino[5,6-b]indol-3-yl)thio)-N-(4-fluorophenyl)acetamide] | 1360 ± 210 |  |  | 
Cn1c2ccccc2c2nnc(SCC(=O)Nc3ccc(Oc4ncccn4)cc3)nc21 [Compound 28, 2-((5-Methyl-5H-[1,2,4]triazino[5,6-b]indol-3-yl)thio)-N-(4-(pyrimidin-2yloxy)phenyl)acetamide] | 1040 ± 120 | 1330 ± 330 |  | 
Cn1c2ccccc2c2nnc(SCC(=O)Nc3ccc(OC(F)(F)F)cc3)nc21 [Compound 21, 2-((5-Methyl-5H-[1,2,4]triazino[5,6-b]indol-3-yl)thio)-N-(4(trifluoromethoxy)phenyl)acetamide] |  |  |  | activity at 10 µM [1]: 29%
Cn1c2ccc(Br)cc2c2nnc(SCC(=O)Nc3cccc(Cl)c3)nc21 [Compound 12, 2-((8-Bromo-5-methyl-5H-[1,2,4]triazino[5,6-b]indol-3-yl)thio)-N-(3-chlorophenyl)acetamide] |  |  | inactive | activity at 10 µM [1]: 43%
Cn1c2ccccc2c2nnc(SCC(=O)Nc3ccc(Oc4ccccc4)cc3)nc21 [Compound 24, 2-((5-Methyl-5H-[1,2,4]triazino[5,6-b]indol-3-yl)thio)-N-(4-phenoxyphenyl)acetamide] | 380 ± 60 | 350 ± 60 |  | fold higher activity in PAO1-L compared to 7 ([1]; PpqsA-lux bioreporter): ~2.5 fold
Cn1c2ccccc2c2nnc(SCC(=O)Nc3ccc(CC#N)cc3)nc21 [Compound 23, N-(4-(Cyanomethyl)phenyl)-2-((5-methyl-5H-[1,2,4]triazino[5,6-b]indol-3-yl)thio)acetamide] | 620 ± 100 | 2000 ± 170 |  | inhibition of pyocyanin production [3]: most potent inhibitor
Cn1c2ccc(Br)cc2c2nnc(SCC(=O)Nc3ccc(Cl)cc3)nc21 [Compound 8, 2-((8-Bromo-5-methyl-5H-[1,2,4]triazino[5,6-b]indol-3-yl)thio)-N-(4-chlorophenyl)acetamide] | 1990 ± 230 | 1600 ± 160 |  | 
Cn1c2ccc(Br)cc2c2nnc(SCC(=O)Nc3ccc(Br)cc3)nc21 [Compound 27, 2-((8-Bromo-5-methyl-5H-[1,2,4]triazino[5,6-b]indol-3-yl)thio)-N-(4-bromophenyl)acetamide] | 23000 ± 9000 |  | inactivity | 
Cn1c2ccccc2c2nnc(SCC(=O)Nc3ccc(Br)cc3)nc21 [Compound 26, N-(4-Bromophenyl)-2-((5-methyl-5H-[1,2,4]triazino[5,6-b]indol-3-yl)thio)acetamide] | 1710 ± 260 | 1350 ± 190 |  | 
Cn1c2ccc(Br)cc2c2nnc(SCC(=O)Nc3ccc(OC(F)(F)F)cc3)nc21 [Compound 22, 2-((8-Bromo-5-methyl-5H-[1,2,4]triazino[5,6-b]indol-3-yl)thio)-N-(4-(trifluoromethoxy)phenyl)acetamide] |  |  |  | activity at 10 µM [1]: 23%
Cn1c2ccc(Br)cc2c2nnc(SCC(=O)Nc3ccc(Oc4ccccc4)cc3)nc21 [Compound 25, 2-((8-Bromo-5-methyl-5H-[1,2,4]triazino[5,6-b]indol-3-yl)thio)-N-(4-phenoxyphenyl)acetamide] | 4360 ± 420 |  |  | 
Cn1c2ccccc2c2nnc(SCC(=O)Nc3ccccc3Cl)nc21 [Compound 38, N-(2-Chlorophenyl)-2-((5-methyl-5H-[1,2,4]triazino[5,6-b]indol-3-yl)thio)acetamide] |  |  | inactive | IC50 PAO1-L ([1]; PpqsA-lux bioreporter): inactive
Cn1c2ccccc2c2nnc(SCC(=O)Nc3cccc(Cl)c3)nc21 [Compound 11, N-(3-Chlorophenyl)-2-((5-methyl-5H-[1,2,4]triazino[5,6-b]indol-3-yl)thio)acetamide] |  |  | inactive | activity at 10 µM [1]: 34%
Cc1ccc(NC(=O)CSc2nnc3c4cc(Br)ccc4n(C)c3n2)cc1 [Compound 18, 2-((8-Bromo-5-methyl-5H-[1,2,4]triazino[5,6-b]indol-3-yl)thio)-N-(p-tolyl)acetamide] |  |  |  | activity at 10 µM [1]: 32%
O=C(CSc1nc2cc([N+](=O)[O-])ccc2[nH]1)Nc1ccc(Oc2ccccc2)cc1 [Compound M64, reference compound] | 320 ± 140 | 1220 ± 340 |  | 
Cn1c2ccccc2c2nnc(SCC(=O)Nc3ccc(Cl)cc3)nc21 [Compound 7, N-(4-Chlorophenyl)-2-((5-methyl-5H-[1,2,4]triazino[5,6-b]indol-3-yl)thio)acetamide] | 980 ± 20 |  | inactive | 
Cn1c2ccc(Br)cc2c2nnc(SCC(=O)Nc3ccc(Cl)c(Cl)c3)nc21 [Compound 14, 2-((8-Bromo-5-methyl-5H-[1,2,4]triazino[5,6-b]indol-3-yl)thio)-N-(3,4-dichlorophenyl)acetamide] | 3100 ± 520 | 7580 ± 820 |  | 
Cn1c2ccc(Br)cc2c2nnc(SCC(=O)Nc3ccccc3Cl)nc21 [Compound 39, 2-((8-Bromo-5-methyl-5H-[1,2,4]triazino[5,6-b]indol-3-yl)thio)-N-(2-chlorophenyl)acetamide] |  |  | inactive | IC50 PAO1-L ([1]; PpqsA-lux bioreporter): inactive
Cc1ccc(NC(=O)CSc2nnc3c4ccccc4n(C)c3n2)cc1 [Compound 17, 2-((5-Methyl-5H-[1,2,4]triazino[5,6-b]indol-3-yl)thio)-N-(p-tolyl)acetamide] | 1860 ± 10 |  |  | 
